Test results published in patent US12213479B2, “Monoterpenoid/phenylpropanoid-containing compounds and methods of their making and use as herbicides” (KITTRICH CORPORATION, priority 2016, dated 2025).

System: Waterhemp (Amaranthus tuberculatus)
Experiment: Toxicity assay (probit LC50), waterhemp
Assay type: in vivo
Excerpt: Waterhemp seeds were obtained from the Department of Agronomy at Iowa State University. Individual seeds were sown for each pot (1.5″ wide×3″ deep) with approximately 7.5 g of soil for each plot. Five seeds/plot was sown into numerous plots. After one month of germination, germinated plants were counted in each plot and this number was used for the total number of plants challenged per plot in the toxicity assessment.
The total number of plants were counted in each plot in 24×6 hexagonal small plot planter tray. The number of germinated seeds in each plot was enumerated after one month, and for each plot this number was recorded and used as the total for each plot. Differing concentrations of thymyloxyacetic acid was applied in 5% Triton-X 100 and 1:1 molar ratio potassium hydroxide:thymyloxyacetic acid to aid in the solubility of the compound in water. Ten mL of solution was applied to each plot, and the mortality of the plants was assessed at 3 days and 2 weeks post application (for some treatments). Mortality at these time points were enumerated out of the total plants germinated in each plot at the beginning of the assay. At both time points, the total number of dead plants and total number of plants at the beginning of the assay were recorded for each observation. A Probit model was used to calculate the LC50 values for each of the compounds explored in this assay. A formulation control (with no active ingredient) was screened against a number of plants and factored into the final probit model. This formulation control had little-to-no effect by itself.

In the case of `Cc1ccc(C(C)C)c(OCC(=O)O)c1` [thymyloxyacetic acid, 2-(2-isopropyl-5-methylphenoxy)acetic acid], the “LC50 Value” (Waterhemp) is reported as 700 ppm and the “Selective Toxicity Compared to Bluegrass” value (Waterhemp compared to bluegrass) is reported as 5.
